ChEMBL document CHEMBL1201862, “PubChem BioAssay data set” (2004)
Activity calls are given as the source filed them.

Key:
Mu-type opioid receptor = Mu-type opioid receptor (Homo sapiens, UniProt P35372); assay type: functional, cell-based;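 further: U2OS cells with beta-arrestin recruitment to OPRM1 by beta-gal complementation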
[1] = target: 5-hydroxytryptamine receptor 2A (Mus musculus, UniProt P35363); assay type: functional, cell-based;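 further: CHO-K1 cells with tagged receptor and beta-arrestin; agonist potency measured as compound-induced activation of the receptor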
Major prion protein = Major prion protein (Homo sapiens, UniProt P04156); assay type: functional, cell-based
[2] = target: T1, Small ubiquitin-related modifier 1 (Homo sapiens, UniProt P63165); assay: SUMO1 protein interaction blockers, potency – biochemical, fluorescence polarization, uHTS hits, dose response (AID 624382); assay type: functional; settings: read-out: IC50_Mean
[3] = target: T1, Small ubiquitin-related modifier 1; assay: SUMO1 protein-protein binding blockers, potency – biochemical, FRET, dose response (AID 624383); assay type: functional; settings: read-out: IC50_Mean
Beta-lactamase [4] = target: Beta-lactamase (Pseudomonas aeruginosa, UniProt Q79MP6);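 further: biochemical dose-response test of metallo-beta-lactamase enzyme inhibition, read out by epi-absorbance; purified recombinant IMP-1 metallo-beta-lactamase with nitrocefin as substrate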
Beta-lactamase [5] = target: Beta-lactamase (Salmonella choleraesuis (strain SC-B67), UniProt Q5J463)
[6] = target: T2, Carboxy-terminal domain RNA polymerase II polypeptide A small phosphatase 1 (Homo sapiens, UniProt Q9GZU7); assay: CTDSP1 inhibitors, concentration-response, biochemical, absorbance readout, ultra-high-throughput screen actives (AID 540297); assay type: functional
T2 sequence (Q9GZU7 whole entry): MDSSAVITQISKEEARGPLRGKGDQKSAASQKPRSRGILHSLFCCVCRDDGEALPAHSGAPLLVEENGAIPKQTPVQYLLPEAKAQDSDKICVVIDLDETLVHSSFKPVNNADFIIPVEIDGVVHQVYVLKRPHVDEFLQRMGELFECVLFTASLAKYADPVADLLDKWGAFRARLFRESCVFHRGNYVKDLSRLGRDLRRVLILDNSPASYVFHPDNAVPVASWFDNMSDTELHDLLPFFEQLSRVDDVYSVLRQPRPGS

Paired box protein Pax-8 = Paired box protein Pax-8 (Homo sapiens, UniProt Q06710); assay: PAX8 transcriptional activity inhibition in RMG-I – RMG-I cells, luciferase, cherry-pick, dose response (AID 687027); assay type: functional, cell-based;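 further: luciferase reporter driven by Pax8 target thyroperoxidase promoter measured by SteadyGlo luminescence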
[7] = OVCAR-3 cell viability loss – plate reader, dry powder samples, PAX8 inhibitor project, dose response (AID 743044); assay type: functional, cell-based
[8] = IGROV1 cell killing – plate reader, dry powder samples, PAX8 inhibitor project, dose response (AID 743043); assay type: functional, cell-based; settings: IGROV-1
[9] = OVCAR8 cell viability loss – plate reader, dry powder samples, PAX8 project, dose response (AID 743197); assay type: functional, cell-based; settings: OVCAR-8
[10] = T. cruzi growth inhibition in host cells, dose response, cell-based, plate reader, dry powder, set 2 (AID 652275); assay type: functional

For `CCCN(CCC)C1CCc2ccc(O)cc2C1` (stereo not given), which EC50 (Mu-type opioid receptor) is on record?
The EC50 was 92.4 µM (inactive).

And the EC50 [1]?
The EC50 was 0.0038 µM (active).

Which results are given for `Cn1c(=O)c(C(=O)CSc2nncs2)c(N)n(Cc2ccccc2)c1=O`?
IC50 (Major prion protein): 8.53 µM (active); IC50 (cells): > 138 µM (inactive)

With `COc1ccc(OC)c(Nc2nc3ccccc3n3cnnc23)c1` as the molecule, how does the IC50 [2] read?
The IC50 was > 66.6 µM (inactive).

And the IC50 [3]?
Its IC50 is 19.2 µM (active).

What does the source list for `Cc1nn(-c2ccccc2)c(Cl)c1/C=C(\CC(=O)O)c1nc2ccccc2s1`?
IC50 (Beta-lactamase [4]): > 59.6 µM (inactive); IC50 (Beta-lactamase [5]): > 59.6 µM (inactive)

Which results are given for `COc1cccc(-c2cc3c(=O)n(-c4ccccc4)c(=S)[nH]c3s2)c1`?
IC50 (Major prion protein): 6.34 µM (active); IC50 (cells): > 138 µM (inactive)

With `CCOC(=O)c1c(NC(=O)COC(=O)c2ccc(NC(=O)CC#N)cc2)sc(C(=O)NC)c1C` as the molecule, how does the IC50 [6] read?
The IC50 was 3.43 µM (active).

What about the IC50 [2] of the same molecule?
The IC50 was > 66.6 µM (inactive).

What about the IC50 [3] of the same molecule?
Its IC50 is 6.69 µM (active).

Which EC50 (Mu-type opioid receptor) does the source give for `COC(=O)C1CCN(CC(=O)Nc2ccc3c(c2)OCCO3)CC1` here?
Its EC50 is 92.5 µM (inactive).

And the EC50 [1]?
The EC50 was 76.1 µM (inactive).

Which AC50 (Paired box protein Pax-8) does the source give for `COc1cccc(-c2ccc3c(c2)[C@H]2[C@H](CCN2S(=O)(=O)c2ccccc2OC)[C@@H](CO)N3C)c1` here?
Its AC50 is 11.1 µM (active).

What about the AC50 [7] of the same molecule?
The AC50 was 21.6 µM (active).

And the AC50 [8]?
Its AC50 is 34.3 µM (active).

And the AC50 [9]?
Its AC50 is 25.4 µM (active).

With `Cc1ccccc1-c1ccc([C@H]2[C@H](CO)N3CCCCN(C(=O)CN4CCOCC4)C[C@@H]23)cc1` as the molecule, how does the AC50 [10] read?
The AC50 was 420 nM (active).
